Like-named read-outs stand apart in the source and are kept apart here.
What was measured:
[1] = tested on: genital blood flow in female anesthetized rabbits; test: Genital tissue oxyhemoglobin (genital engorgement) by laser oximetry, basal and after pelvic nerve stimulation, in vivo model of female sexual arousal; parameters: species or system rabbit (New Zealand White); settings: for nerve-induced increase in genital tissue OxyHb: topical vaginal formulation; for mean AUC of genital tissue OxyHb compared to vehicle-treated control group: 15-35 min; for response to pelvic nerve stimulation (genital tissue oxyhemoglobin) vs control stimulations: vaginal submucosal injection 100 μg
Method: The effect of Rec 15/2615 formulation on genital blood flow, a physiologic parameters of female sexual arousal, was measured in both the basal, non-aroused state and following stimulation of the pelvic nerve, which mimics the sexually aroused state, in an established in vivo animal model of female sexual arousal (see, e.g., Munarriz, R., et al., 2003, A review of the physiology and pharmacology of peripheral (vaginal and clitoral) female genital arousal in the animal model, J. Urol. 170(2 Pt 2):S40-44; Min, K., et al., 2000, Sildenafil augments pelvic nerve-mediated female genital sexual arousal in the anesthetized rabbit. Intl. J. Impot. Res. 12(Suppl)3:S32-39; Tarcan, T., et al., 2000, Systemic administration of apomorphine improves the hemodynamic mechanism of clitoral and vaginal engorgement in the rabbit. Int J Impot Res. 12:235-240; Park, K., et al., 1997, Vasculogenic female sexual dysfunction: the hemodynamic basis for vaginal engorgement insufficiency and clitoral erectile insufficiency. Intl. J. Impot. Res. 9:27-37). Each of the foregoing references is incorporated herein by reference in its entirety.
(§1) Female New Zealand White rabbits (4.5 to 5 kg) were anesthetized by intramuscular injection of ketamine (35 mg/kg) and xylazine (5 mg/kg) and secured in the supine position. Anesthesia was maintained as needed with additional intramuscular xylazine (5 mg/ml). A midline neck incision (3 cm) was fashioned to access the carotid artery. A 20-gauge angiocatheter was inserted into the carotid artery for systemic blood pressure measurements. […] Body temperature was maintained with an electric heat pad. Following subcutaneous lidocaine injection, the perivesical space was exposed through a mid-line abdominal incision. The pelvic nerve was identified and carefully dissected under the perivesical fat on the postero-lateral aspect of the upper vagina. Bladder contents were aspirated through the bladder wall with an 18 gauge needle and 50 ml syringe. Under direct vision, a bipolar platinum wire electrode was hooked onto the pelvic nerve without cutting the nerve. Unilateral pelvic nerve stimulation was accomplished with a Grass SD9 stimulator set at normal polarity and repeat mode to generate a 30 second train of square waves with 10 V pulse amplitude, 0.8 msec pulse duration and 2-6 Hz frequency. A laser Doppler flowmetry surface probe (model BLF21D, Transonic System Inc, Ithaca, N.Y., USA) was placed into the rabbit vagina and used to confirm unilateral pelvic nerve stimulation. The interval between stimulations was 10-15 min to prevent nerve exhaustion.
Tissue hemoglobin concentration was determined by a near infrared optical spectroscopy technique using a dual channel laser oximeter (model 96208; ISS, Inc., Champaign, Ill.). This technique utilizes a continuous wave optical spectrometer with a fiber optic array probe consisting of one detector and 8 light sources. The sources emit light in the near infrared spectrum (700-900 nm) which can penetrate a targeted volume of tissue (˜530 mm^3) to an average depth of 7.2 mm beneath the optical fibers. By detecting scattered light, absorption by oxyhemoglobin (OHb) and deoxyhemoglobin can be quantified and total hemoglobin can be calculated. Laser oximetry can thus be utilized to assess local tissue hemodynamics in a non-invasive and continuous fashion. The skin around the labia was carefully shaved to ensure good contact with the optical fibers. The probe (2 cm in length) was positioned longitudinally on the skin overlying the clitoris, labia and vagina, such that the detector fiber was positioned just below the pubic arch. The probe assembly was secured in place by a metal stand. The area over the probe was covered with a black cloth to prevent any interference from natural or artificial ambient light sources.
A flexible 18 gauge catheter was attached to a syringe loaded with hydrogel formulation. The catheter was filled until the formulation reached 3-5 mm from the open end. […]

[2] = tested on: systemic blood pressure; test: Systemic blood pressure via carotid artery catheter in anesthetized rabbits; format: in vivo, rabbit (New Zealand White)
Method: as §1, with “The interval between stimulations was 10-15 min to prevent nerve exhaustion.” left out

[3] = Plasma concentration of Rec 15/2615 by LC/MS-MS after vaginal application or submucosal injection; format: in vivo, rabbit; settings: for concentration at 15 min: female, rabbit, plasma, read-out: Mean plasma levels of Rec 15/2615
Method: A flexible 18 gauge catheter was attached to a syringe loaded with hydrogel formulation. The catheter was filled until the formulation reached 3-5 mm from the open end. The catheter was placed 2.5 cm into the vagina and secured to the labia with suture to prevent migration. The syringe was placed on the heating pad to keep the formulation warm. Following control nerve stimulations, 1 ml of formulation was infused into the vagina. Pelvic nerve stimulation was repeated 15 min and 30 min afterwards. Nerve stimulation at the 15 min time point coincided with the time of maximal serum concentration.
Rec 15/2615 hydrochloride (1 mg/ml) was dissolved in 10% (v/v) N,N-dimethylformamide. Prior to the application of the laser oximeter probe, Rec 15/2615 hydrochloride solution was loaded into two 23 gauge infusion sets connected to 1 ml syringes (50 μl per infusion set). Needles were inserted into the distal vaginal wall, just below the mucosal surface, at the 3 and 9 o'clock positions. Following control nerve stimulations, drug was infused into the vagina. Pelvic nerve stimulation was repeated 15 min and 30 min after drug administration.
Blood samples (˜2 ml) were obtained from the carotid artery prior to formulation administration and then […] after formulation administration. Samples were collected in heparinized syringes and transferred into pre-cooled polypropylene tubes on ice. Plasma was obtained by centrifugation at 1200×g for 2 min at 4° C. and stored at −20° C.
0.1 mL of rabbit plasma was transferred to an Eppendorf tube and 10 μL of internal standard methanolic solution (0.2 μg/mL of 4-amino-6,7-dimethoxy-2-[4-(2-isopropyl-5-methylphenoxy acetyl)-1-piperazinyl]quinazoline (Rec 15/2693) in methanol) were added. 1 mL of acetonitrile was added to each sample and samples were shaken on a multimixer shaker for 1 min. Protein was allowed to precipitate and samples were then centrifuged at 4° C. for 10 min at 2700 g. The organic layer was transferred to a new glass tube and evaporated at 45° C. under a stream of nitrogen. The residue was dissolved in 250 μL of buffer solution containing methanol/10 mM ammonium formate, pH 3.5 (40:60; v/v). Samples were mixed 1 min using a vortex mixer and clarified by centrifugation (5 min×2700 g). The clarified solution was transferred into an autosampler vial. Aliquots of 20 μL were analyzed by LC/MS-MS.

concentration at 15 min ([3]; other: submucosal injection into the distal vaginal wall, 15 min after direct submucosal injection of 0.1 mg)	concentration at 15 min ([3]; other: vaginal application, 15 min after vaginal application of 1 ml of formulation 0.075%)	concentration at 15 min ([3]; other: vaginal application, 15 min after vaginal application of 1 ml of formulation 0.15%)	concentration at 15 min ([3]; other: vaginal application, 15 min after vaginal application of 1 ml of formulation 0.3%)	plasma levels with increasing concentration of active compound in the formulation ([3]; vaginal application, 0.075-0.3%)	Structure (SMILES)	nerve-induced increase in genital tissue OxyHb ([1]; pelvic nerve stimulation at 15 min)	nerve-induced increase in genital tissue OxyHb ([1]; pelvic nerve stimulation at 30 min)	AUC of genital tissue OxyHb relative to vehicle ([1]; topical vaginal, 0-35 min, dose-dependent trend)	mean AUC of genital tissue OxyHb compared to vehicle-treated control group ([1]; topical vaginal, 1 ml formulation 0.15%)	mean AUC of genital tissue OxyHb compared to vehicle-treated control group ([1]; topical vaginal, 1 ml formulation 0.3%)	mean area-under-the-curve (AUC) of genital tissue OxyHb compared to vehicle ([1]; topical vaginal, 1 ml formulation, 0-15 min, all concentrations except 0.15%)	duration of sustained genital engorgement following formulation administration ([1]; topical vaginal, duration of the experimental protocol)	response to pelvic nerve stimulation (genital tissue oxyhemoglobin) vs control stimulations ([1]; 15 min after injection)	response to pelvic nerve stimulation (genital tissue oxyhemoglobin) vs control stimulations ([1]; 30 min after injection)	effect on blood pressure ([2]; topical vaginal administration, 0.075-0.3% formulations)	effect on systemic blood pressure ([2]; vaginal submucosal injection (data not shown))	effect on genital tissue oxyhemoglobin administered as a gel compared with direct submucosal injection ([1]; formulations 0.075% and 0.15% vs submucosal injection, considering plasma levels at 15 min)
26.3 ng/mL	10.6 ng/mL	45.2 ng/mL	72.5 ng/mL	dose-dependent increase	COc1cc2nc(N3CCN(C(=O)COc4c(OC)cccc4C(C)C)CC3)nc(N)c2cc1OC [Rec 15/2615, 4-amino-6,7-dimethoxy-2-{4-[(2-isopropyl-6-methoxyphenoxy)acetyl]-1-piperazinyl}quinazoline]	significant increase	remained high	higher AUC values relative to vehicle	statistically significant difference	statistically significant difference	similar	up to 45 minutes	significantly enhanced response	did not reach statistical significance	no significant effect	did not affect systemic blood pressure	
					COc1cc2nc(N3CCN(C(=O)COc4c(OC)cccc4C(C)C)CC3)nc(N)c2cc1OC.Cl.Cl [Rec 15/2615 hydrochloride]												higher than that obtained by direct injection

From patent US20050260253A1, “Transmucosal gel formulations” (Recordati Ireland Limited, priority 2004, published 2005)
